Test results published in patent publication US6358941B1, “Treatment of arthritis disorders, rheumatoid arthritis and manifestations associated with rheumatoid disorders” (priority 1996, dated 2002).
Where a name gives a salt, the structure may show the parent alone.

Assays:
[1] = in vivo; cited from earlier work
[2] = tested on: patient with Rheumatoid Arthritis and anaemia; experiment: Treatment of a patient with anaemia of chronic disorder (Example 6); type: in vivo, human
Experimental: The patient was treated in the period between Jan. 3, 1997 and Jan. 20, 1997.

[3] = tested on: haemolysate cholinesterase (erythrocyte acetylcholinesterase); experiment: Cholinesterase activity in haemolysed whole blood (Sigma Diagnostics Cholinesterase (PTC) kit); type: biochemical, human; details: 0 to 2.5 μg/ml added in vitro
Experimental: (§1) SIGMA DIAGNOSTICS® CHOLINESTERASE (PTC) kit, available from Sigma Diagnostics, can be used for determining the activity and selectivity of cholinesterase inhibitors.
(§2) Reactions involved in the cholinesterase assay are as follows:
(§3) Propionylthiocholine+H2O→Propionic Acid+Thiocholine
(§4) Thiocholine+5, 5′-Dithiobis-2-Nitrobenzoic Acid→5-Thio-2-Nitrobenzoic Acid
(§5) 5-Thio-2-Nitrobenzoic Acid is assessed by measuring the absorbance at 405 nm. The rate of change in absorbance at 405 nm is directly proporational to cholinesterase activity.
(§6) The activity of erythrocyte cholinesterase may be calculated on the basis of the measurement of butyrylcholinesterase (pseudocholinesterase) in serum and cholinesterase in haemolyzed whole blood (haemolysate), both measured simultaneously by the method described above, and evaluated according to the haematocrit value according to the formula
HChE=(EChE×Hctg*)+(PChE×(1-Hct*))
In the above formulae, EChE is erythrocyte cholinesterase activity, PChE is plasma cholinesterase activity, HChE is haemolysate cholinesterase activity, and Hct is haematocrit value of the sample.
Another way of assessing the cholinesterase activity is to measure the plasma cholinesterase and the cholinesterase in purified haemolyzed erythrocytes. By doing this, the values are obtained directly.
Blood samples from 3 patients were tested with the Sigma test. […]

[4] = tested on: patients with osteoarthritis; experiment: Treatment of patients with osteoarthritis (Example 5); type: in vivo, human
[5] = target: T1, butyrylcholinesterase (pseudocholinesterase) in serum (Homo sapiens, UniProt P06276); experiment: Cholinesterase activity in serum (Sigma Diagnostics Cholinesterase (PTC) kit); type: biochemical; details: 0 to 2.5 μg/ml added in vitro
T1 construct: butyrylcholinesterase (pseudocholinesterase) in serum; from tissue; host or cells: serum of patients
Experimental: as §1, §2, §3, §4, §5, §6
Blood samples from 3 patients were tested with the Sigma test. […] The results are shown below in table 1.1.

[6] = room temperature; galantamine and its acid addition salts; cited from earlier work
[7] = humans; cited from earlier work
[8] = tested on: patients suffering from different arthritic disorders of rheumatoid origin; experiment: Treatment of patients with rheumatoid diseases (Example 7); type: in vivo, human
Excerpt: Stiffness: Joint stiffness is a complaint covering sensations which range from slight resistance to all movements through the normal range, to blocking of certain movements due to fixed anatomical changes. Certain types of stiffness are highly characteristic, such as early morning stiffness.
Early morning stiffness occurs primarily in rheumatoid arthritis, but also in other arthritic diseases. The patient awakes with distressing, painful stiffness of all affected joints. This is gradually “worked off ” by activity over one half to three hours or more. This “limbering up time” provides a reliable measure of inflammatory activity. In osteoarthritis stiffness tends to come on later in the day and is preceded by activity.
In one of the examples given of rheumatoid patients on galantamine, the parameters evaluated were tiredness, sleep, pain, and stiffness. […] All these parameters were evaluated with a questionaire and VAS (Visual Analogue Scale) which refer to the patients' reporting as regards the severity of the symptoms, represented by a 0-100 percentage line.

T1 sequence (P06276 29-602): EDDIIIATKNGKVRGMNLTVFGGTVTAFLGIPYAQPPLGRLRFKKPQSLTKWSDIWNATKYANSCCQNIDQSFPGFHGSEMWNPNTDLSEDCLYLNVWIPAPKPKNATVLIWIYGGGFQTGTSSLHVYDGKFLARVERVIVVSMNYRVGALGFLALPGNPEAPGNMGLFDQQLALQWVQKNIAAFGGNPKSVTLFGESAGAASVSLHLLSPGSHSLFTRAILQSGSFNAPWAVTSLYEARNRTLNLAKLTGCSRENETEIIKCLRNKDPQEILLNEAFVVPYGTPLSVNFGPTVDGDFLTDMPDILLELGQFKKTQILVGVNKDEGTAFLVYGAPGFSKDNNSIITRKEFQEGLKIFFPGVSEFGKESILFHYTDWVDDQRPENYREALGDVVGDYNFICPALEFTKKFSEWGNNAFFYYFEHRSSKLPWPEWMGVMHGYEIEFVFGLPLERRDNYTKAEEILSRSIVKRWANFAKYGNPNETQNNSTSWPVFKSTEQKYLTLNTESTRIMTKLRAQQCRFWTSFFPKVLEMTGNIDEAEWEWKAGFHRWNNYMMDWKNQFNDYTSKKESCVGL

SMILES	elimination half life [1]	laboratory blood tests reflecting anaemia ([2]; 15 mg per day (3 x 5 mg orally), after 14 days)	Change of haemolysate cholinesterase activity with increased concentration [3]	joint pain symptoms, second patient ([4]; 10 mg per day (2 x 5 mg tablets), after three days, osteoarthritis not diagnosed)	osteoarthritis symptoms, first volunteer ([4]; 10 mg per day orally (2 x 5 mg), after seven days, maintained over 31 days, dose raised to 30 mg per day)	symptoms when medication was discontinued, first volunteer ([4]; after 31 day period)	Change of serum cholinesterase activity as response to addition [5]	solubility in water [6]	passing the blood-brain barrier [7]	Haematocrit ([2]; 20-1-97, after treatment with 15 mg per day orally, normal 0.360-0.470, 0.342 on 3-1-97) [L/L]	White cells ([2]; 20-1-97, after treatment with 15 mg per day orally, normal 3.8-10.2, 6.6 on 3-1-97) [L⁻¹]	Red cells ([2]; 20-1-97, after treatment with 15 mg per day orally, normal 4.00-5.8, 3.72 on 3-1-97) [L⁻¹]	Haemoglobin ([2]; 20-1-97, after treatment with 15 mg per day orally, normal 118-158, 115 on 3-1-97) [g/L]	patients reporting a significant improvement in their symptoms ([8]; 13 patients, patient numbers 1, 2, 3, 5, 9, 10 and 12) [%]	augmentation of grip strength ([8]; one RA patient (patient number 1))
COc1ccc2c3c1O[C@H]1C[C@@H](O)C=C[C@@]31CCN(C)C2 [galantamine hydrobromide]	over four	significant improvement	significant reduction	improvement in symptoms	improvement in osteoarthritis symptoms	Symptoms were reported to recur	do not show any statistically significant changes	–	–	–	–	–	–	–	–
COc1ccc2c3c1O[C@H]1C[C@@H](O)C=C[C@@]31CCN(C)C2 [galantamine]	–	–	–	–	–	–	–	only sparingly soluble	capable of passing the blood-brain barrier	0.362	5.9e+09	3.94e+12	124	50	over 50%
